Test results from patent US8865901B2, “Gain-of-function Bcl-2 inhibitors” (priority 2009, dated 2014).
Read-outs that look alike come from different tables or passages of the source.

Experiments:
[1] = test system: TAMH cells overexpressing Bcl-xL (TAMH-Bcl-xL, Tabx2s); assay: Cytotoxicity / apoptosis induction in TAMH cells overexpressing Bcl-xL; assay type: cell-based; conditions: for Neo:Bcl: ratio Neo to Bcl-xL cells
Procedure: (§1) To examine the sensitivity of cells over-expressing Bcl-xL to various mitochondrial inhibitors and apoptosis inducers, cell lines over-expressing Bcl-xL were prepared and tested according to Hockenberry et al. U.S. Pat. No. 7,241,804, hereby incorporated by reference in its entirety. Competitive binding of compounds with fluorescent antimycin A3, and competitive binding of compounds with BH3 peptide and Bcl-2. Competitive binding of compounds with BH-3 peptide were also measured using Bcl-xL as previously described. Id.
(§2) Cell lines were grown in RPMI 1640 medium (Gibco, Grand Island, N.Y.) supplemented with 5% fetal bovine serum (Hyclone, Logan, Utah). Also shown is the ratio of TAMH cells expressing Bcl-xL to those expressing A142L (WT:142L). The assay measures the potency of various compounds with respect to inducing apoptosis in these cells.
(§3) The compounds described in Example 2 were tested for their ability to inhibit Bcl-2 gain-of-function in TAMH cells, TAMH cells overexpressing […] (TAMH-Bcl-xL), TAMH cells transfected with Neo vector (Neo), TAMH cells over expressing a variant of Bcl-xL (A142L) using the methods of Example 1. 3-6.
(§4) The effects of the compounds described in Example 8 on TAMH cells, TAMH cells overexpressing Bcl-xL (TAMH-Bcl-xL), TAMH cells transfected with Neo vector (Neo), TAMH cells over expressing a variant of Bcl-xL (A142L) is shown in Table 8
(§5) The effects of the compounds described in Example 10 on TAMH cells, TAMH cells overexpressing Bcl-xL (TAMH-Bcl-xL), TAMH cells transfected with Neo vector (Neo), TAMH cells over expressing a variant of Bcl-xL (A142L) is shown in the following Table 10

[2] = test system: TAMH cells transfected with Neo vector (Neo); assay: Cytotoxicity / apoptosis induction in TAMH cells transfected with Neo vector; assay type: cell-based; conditions: TAMH Neo cells
Procedure: as §1, §2, §3, §4, §5

[3] = test system: TAMH cells over expressing a variant of Bcl-xL (A142L); assay: Cytotoxicity / apoptosis induction in TAMH cells over expressing Bcl-xL variant A142L; assay type: cell-based; conditions: Table 4; for EC50: TAMH A142L cells; for WT:142L: ratio of TAMH cells expressing Bcl-xL to those expressing A142L
Procedure: as §1, §2, §3

H23, NSCLC tumor = assay: Apoptosis induction against solid tumors in vitro, H23; assay type: cell-based
Procedure: (§6) The ability of compounds from Example 2 to induce apoptosis against solid tumors in vitro was tested. Four solid tumors were tested: OVCAR-3, an ovarian tumor; COLO205, a colonic tumor; HOP-62 and H23, both NSCLC tumors. The experimental compounds were compared to 2MeAA and to ABT-737, a clinical stage compound owned by Abbott Pharma.
(§7) The ability of compounds of Example 8 to induce apoptosis against solid tumors in vitro was tested. Four solid tumors were tested: OVCAR-3, an ovarian tumor; COLO205, a colonic tumor; HOP-62 and H23, both NSCLC tumors. The experimental compounds, […]

COLO205, a colonic tumor = assay: Apoptosis induction against solid tumors in vitro, COLO205; assay type: cell-based
Procedure: as §6, §7

HOP-62, NSCLC tumor = assay: Apoptosis induction against solid tumors in vitro, HOP-62; assay type: cell-based
Procedure: as §6, §7

[4] = test system: OVCAR-3, an ovarian tumor; assay: Apoptosis induction against solid tumors in vitro, OVCAR-3; assay type: cell-based
Procedure: as §6, §7

[5] = Table 4, TAMH-Bcl-xL cells, read-out: Bcl-xL
[6] = Table 3, TAMH cells overexpressing Bcl-xL (Tabx2s), read-out: 2S EC50
[7] = Table 5, TAMH cells overexpressing Bcl-xL (Tabx2s), read-out: 2S EC50
[8] = Homo sapiens, NCI-H23, Table 21
[9] = Homo sapiens, COLO 205, Table 21

O=C(/N=C/c1cc(Br)cc(Br)c1O)c1ccccc1 [Compound 0347]
EC50 ([1]; Table 6, TAMH cells overexpressing Bcl-xL (Tabx2s), read-out: 2S EC50): 0.5 µM
Log P (Log P; Table 6): 4.250
EC50 ([2]; Table 6, read-out: Neo EC50): 5.8 µM

Oc1c(Cl)cc(Cl)cc1/C=N/Nc1ccc(C(F)(F)F)cn1 [Compound 0235]
EC50 [3]: 8.5 µM
WT:142L [3]: 2.2
EC50 [1, 5]: 3.9 µM
Neo:Bcl ([1]; Table 4): 2.8
EC50 (H23, NSCLC tumor; Table 7): 3.7 µM
EC50 ([2]; Table 4, read-out: Neo): 11 µM
EC50 (COLO205, a colonic tumor; Table 7): 6.7 µM
EC50 (HOP-62, NSCLC tumor; Table 7): 8.3 µM
EC50 ([4]; Table 7): 2.7 µM

CN(C)CC[C@H](CSc1ccccc1)Nc1ccc(S(=O)(=O)NC(=O)c2ccc(N3CCN(Cc4ccccc4-c4ccc(Cl)cc4)CC3)cc2)cc1[N+](=O)[O-] [ABT-737, reference compound]
EC50 (H23, NSCLC tumor; Homo sapiens, NCI-H23, Table 7): > 25 µM
EC50 (H23, NSCLC tumor; Table 21): > 25 µM
EC50 (COLO205, a colonic tumor; Homo sapiens, COLO 205, Table 7): > 25 µM
EC50 (COLO205, a colonic tumor; Table 21): > 25 µM
EC50 (HOP-62, NSCLC tumor; Homo sapiens, Table 7): > 25 µM
EC50 (HOP-62, NSCLC tumor; Table 21): > 25 µM
EC50 ([4]; Homo sapiens, Table 7): 17 µM

COc1cc(Br)cc(/C=N/Nc2ccc(C(F)(F)F)cc2)c1O [Compound 0333]
EC50 [3]: 22.2 µM
WT:142L [3]: 8.2
EC50 [1, 6]: 2.2 µM
EC50 [1, 5]: 2.7 µM
Neo:Bcl ([1]; Table 4): 9.2
Log P (Log P; Table 3): 6.510
EC50 ([2]; Table 3, read-out: Neo EC50): 26.9 µM
EC50 ([2]; Table 4, read-out: Neo): > 25 µM

COc1cc(O)c(/C=N/Nc2ccccn2)cc1Br [Compound 0351]
EC50 [3]: > 25 µM
WT:142L [3]: 1
EC50 [1, 6]: 2.6 µM
EC50 [1, 5]: > 25 µM
Neo:Bcl ([1]; Table 4): 1
Log P (Log P; Table 3): 3.03
EC50 ([2]; Table 3, read-out: Neo EC50): ≥ 50 µM
EC50 ([2]; Table 4, read-out: Neo): > 25 µM

CC(=O)Oc1ccc(C)cc1Cc1cc(C)cc(Cc2cc(C)ccc2OC(C)=O)c1OC(C)=O [Compound 0098]
EC50 [1, 7]: 1.6 µM
Log P (Log P; Table 5): 7.45
EC50 ([2]; Table 5, read-out: Neo EC50): 10.4 µM

Oc1ccc(Cl)cc1/C=N/Nc1ccc(C(F)(F)F)cn1 [Compound 0231]
EC50 [1, 6]: 2.1 µM
Log P (Log P; Table 3): 3.560
EC50 ([2]; Table 3, read-out: Neo EC50): ≥ 50 µM

O=[N+]([O-])c1cccc(/C=N/Nc2ccc3ccccc3n2)c1O [FH297]
EC50 (H23, NSCLC tumor; [8]): 2.8 µM
EC50 (COLO205, a colonic tumor; [9]): 1 µM
EC50 (HOP-62, NSCLC tumor; Homo sapiens, Table 21): 2.7 µM
EC50 ([4]; Homo sapiens, Table 21): 1.5 µM

COc1ccc(Cl)cc1Cc1cc(Cl)cc(Cc2cc(Cl)ccc2O)c1OC [Compound 0088]
EC50 [1, 7]: 0.6 µM
Log P (Log P; Table 5): 7.4
EC50 ([2]; Table 5, read-out: Neo EC50): 6.1 µM

Cc1ccc(OC(=O)C(C)C)c(Cc2cc(C)cc(Cc3cc(C)ccc3OC(=O)C(C)C)c2O)c1 [Compound 0127]
EC50 [1, 7]: 3.2 µM
Log P (Log P; Table 5): 8.31

Oc1c(Cl)cc(Cl)cc1/C=N/Nc1ccc(C(F)(F)F)cn1 [FH092]
EC50 (H23, NSCLC tumor; [8]): 3.7 µM
EC50 (COLO205, a colonic tumor; [9]): 6.7 µM
EC50 (HOP-62, NSCLC tumor; Homo sapiens, Table 21): 8.3 µM
EC50 ([4]; Homo sapiens, Table 21): 2.7 µM

Oc1c(Br)cc(Cl)cc1/C=N/Nc1ccc(C(F)(F)F)cn1 [FH096]
EC50 (H23, NSCLC tumor; [8]): 5.6 µM
EC50 (COLO205, a colonic tumor; [9]): > 25 µM
EC50 (HOP-62, NSCLC tumor; Homo sapiens, Table 21): 19.1 µM
EC50 ([4]; Homo sapiens, Table 21): 4.2 µM

CC(C)(C)c1cc(O)c(/C=N/Nc2ccccn2)cc1Br [Compound 0353]
EC50 [1, 6]: 1.3 µM
Log P (Log P; Table 3): 4.810
EC50 ([2]; Table 3, read-out: Neo EC50): 10 µM

COc1c(Cl)cc(/C=N/Nc2ccccn2)c(O)c1Br [Compound 0355]
EC50 [1, 6]: 1.6 µM
Log P (Log P; Table 3): 3.820
EC50 ([2]; Table 3, read-out: Neo EC50): 33 µM

Oc1c(Br)cc(Br)cc1/C=N/Nc1ccccn1 [Compound 0245]
EC50 [1, 6]: 3.3 µM
Log P (Log P; Table 3): 3.540
EC50 ([2]; Table 3, read-out: Neo EC50): ≥ 50 µM

CC(C)(C)c1ccc(Cc2ccc(Cl)cc2Cl)cc1 [Compound 0149]
EC50 ([1]; Mus musculus, Table 6, TAMH cells overexpressing Bcl-xL (Tabx2s), read-out: 2S EC50): 1.1 µM
logP (Log P): 6.28
EC50 ([2]; Mus musculus, Table 6, read-out: Neo EC50): 9.2 µM

COc1cc(Br)c(O)c(/C=N/NC(=O)c2ccccc2)c1 [Compound 0283]
EC50 [3]: > 25 µM
WT:142L [3]: 7.1
EC50 [1, 6]: 2.5 µM
EC50 [1, 5]: 3.5 µM
Neo:Bcl ([1]; Table 4): 7.1
Log P (Log P; Table 3): 3.730
EC50 ([2]; Table 3, read-out: Neo EC50): ≥ 50 µM
EC50 ([2]; Table 4, read-out: Neo): > 25 µM
